From patent US20190209506A1, “METHODS OF REDUCING OR PREVENTING OXIDATION OF LDL OR LIPID MEMBRANES IN A SUBJECT IN NEED THEREOF” (Amarin Pharmaceuticals Ireland Limited, priority 2018, published 2019)

Tested on: Human sdLDL particles
Test: Kinetic model of MDA formation in sdLDL oxidation (Example 15)
Assay type: biochemical
Procedure: Human sdLDL particles were isolated and incubated in vitro with vehicle or with varying concentrations of EPA, DHA, or EPA and DHA. Once incubated, copper sulfate (CuSO4) was added to induce oxidation of the sdLDL particles. The sdLDL particles were then assayed for the detection of malondialdehyde (MDA), a known marker of oxidation.
Various kinetic models were evaluated and eventually fit to the sdLDL oxidation data to describe the concentration of MDA in each sample. Both population parameter estimates and associated variabilities were generated for the formation of MDA (Kf) and degradation of MDA (Ke) rates.
The final kinetic model is a 1 compartment model having a first order Ke and an additive first order Kf.

## CC/C=C\C/C=C\C/C=C\C/C=C\C/C=C\CCCC(=O)O [EPA, cis-5,8,11,14,17-eicosapentaenoic acid]
5 μM, after 8 hours
  reduction of Kf (formation rate of MDA): 54%
10 μM alone, predicted
  reduction of Kf predicted by the kinetic model: 73%
